Measured values as given in ChEMBL document CHEMBL1157346, “Synthesis and antiproliferative activity in vitro of novel (2-butynyl)thioquinolines” (2008).
Values after ≈ are worked out from the molar mass of the structure shown. Active and inactive are the calls of the source. The calls are words filed in the database; no cut-off is given here.

What was measured:
Type in all cases: functional
[1] = tested on: P388; experiment: Cytotoxicity against mouse P388 cells after 72 hrs by MTT assay; conditions: for IC50: P388, 72 h, read-out: ID50 (the source's name)
[2] = (§1) Cytotoxicity against human SW707 cells after 72 hrs by SRB assay; conditions: SW707, 72 h, read-out: ID50 (the source's name)
[3] = tested on: CCRF-CEM; experiment: Cytotoxicity against human CCRF-CEM cells after 72 hrs by SRB assay; conditions: for IC50: read-out: ID50 (the source's name)
[4] = tested on: B16; experiment: Cytotoxicity against mouse B16 cells after 72 hrs by SRB assay; conditions: for IC50: B16, 72 h, read-out: ID50 (the source's name)
[5] = tested on: SW707; experiment: as §1

| Structure (SMILES) | IC50 [1] | IC50 [2] | IC50 [3] | Activity [4] | IC50 [4] | Activity [1] | Activity [5] | Activity [3] |
| --- | --- | --- | --- | --- | --- | --- | --- | --- |
| COc1c(SCC#CCO)cnc2ccccc12 | 23.2 µg/mL (≈ 89.5 µM) | 67.4 µg/mL (≈ 260 µM) | 22 µg/mL (≈ 84.8 µM) | inactive | – | – | – | – |
| OCC#CCSc1cnc2ccccc2c1[Se]CC#CCBr | 1.6 µg/mL (≈ 3.64 µM) | 2.8 µg/mL (≈ 6.37 µM) | 0.2 µg/mL (≈ 0.455 µM) | – | 4.6 µg/mL (≈ 10.5 µM) | – | – | – |
| C#CCSc1cnc2ccccc2c1SCC#CCSc1c(SCC#C)cnc2ccccc12 | – | – | – | inactive | – | inactive | inactive | inactive |
| CSc1c(SCC#CCO)cnc2ccccc12 | 32.3 µg/mL (≈ 117 µM) | 69.3 µg/mL (≈ 252 µM) | 13.9 µg/mL (≈ 50.5 µM) | inactive | – | – | – | – |
| C#CCSc1cnc2ccccc2c1SCC#CCO | 4 µg/mL (≈ 13.4 µM) | 42.6 µg/mL (≈ 142 µM) | 3.2 µg/mL (≈ 10.7 µM) | – | 54.7 µg/mL (≈ 183 µM) | – | – | – |
| C#CCSc1cnc2ccccc2c1SCC#CC[Se]c1c(SCC#CC)cnc2ccccc12 | 30.7 µg/mL (≈ 53.5 µM) | 43 µg/mL (≈ 75 µM) | 30.3 µg/mL (≈ 52.8 µM) | inactive | – | – | – | – |
| CC#CCSc1cnc2ccccc2c1SCC#CCSc1c(SCC#CC)cnc2ccccc12 | – | – | – | inactive | – | inactive | inactive | inactive |
| CSc1cnc2ccccc2c1SCC#CCO | 3.1 µg/mL (≈ 11.3 µM) | 34.9 µg/mL (≈ 127 µM) | 2.3 µg/mL (≈ 8.35 µM) | – | 49.8 µg/mL (≈ 181 µM) | – | – | – |
| OCC#CCSc1cnc2ccccc2c1SCC#CCBr | 43.2 µg/mL (≈ 110 µM) | 36.2 µg/mL (≈ 92.3 µM) | 0.6 µg/mL (≈ 1.53 µM) | – | 4.9 µg/mL (≈ 12.5 µM) | – | – | – |
| OCC#CCSc1cnc2ccccc2c1SCC#CCO | 5.7 µg/mL (≈ 17.3 µM) | 32 µg/mL (≈ 97.1 µM) | 2.6 µg/mL (≈ 7.89 µM) | – | 42.2 µg/mL (≈ 128 µM) | – | – | – |
| C[Se]c1c(SCC#CCO)cnc2ccccc12 | 19.8 µg/mL (≈ 61.4 µM) | 3.5 µg/mL (≈ 10.9 µM) | 2.1 µg/mL (≈ 6.52 µM) | – | 5.8 µg/mL (≈ 18 µM) | – | – | – |
| C#CCSc1cnc2ccccc2c1[Se]CC#CCO | 3.1 µg/mL (≈ 8.95 µM) | 3.3 µg/mL (≈ 9.53 µM) | 3.2 µg/mL (≈ 9.24 µM) | – | 3.6 µg/mL (≈ 10.4 µM) | – | – | – |
| C#CC[Se]c1c(SCC#CCO)cnc2ccccc12 | 2.5 µg/mL (≈ 7.22 µM) | 3.8 µg/mL (≈ 11 µM) | 1.9 µg/mL (≈ 5.49 µM) | – | 6.8 µg/mL (≈ 19.6 µM) | – | – | – |
| OCC#CCSc1cnc2ccccc2c1Cl | 2.4 µg/mL (≈ 9.1 µM) | 6.2 µg/mL (≈ 23.5 µM) | 4.1 µg/mL (≈ 15.5 µM) | inactive | – | – | – | – |
| C#CCSc1c(SCC#CCO)cnc2ccccc12 | 13.3 µg/mL (≈ 44.4 µM) | – | 2.7 µg/mL (≈ 9.02 µM) | inactive | – | – | inactive | – |
| CSc1cnc2ccccc2c1[Se]CC#CCO | 2.6 µg/mL (≈ 8.07 µM) | 3.4 µg/mL (≈ 10.5 µM) | 0.5 µg/mL (≈ 1.55 µM) | – | 4.2 µg/mL (≈ 13 µM) | – | – | – |
| CSc1cnc2ccccc2c1SCC#CCSc1c(SC)cnc2ccccc12 | – | – | – | inactive | – | inactive | inactive | inactive |
| C#CCSc1cnc2ccccc2c1[Se]CC#CCBr | 1.2 µg/mL (≈ 2.93 µM) | 2.2 µg/mL (≈ 5.38 µM) | 0.3 µg/mL (≈ 0.733 µM) | – | 4.2 µg/mL (≈ 10.3 µM) | – | – | – |
| OCC#CCSc1cnc2ccccc2c1[Se]CC#CCO | 4.1 µg/mL (≈ 10.9 µM) | 26.6 µg/mL (≈ 70.7 µM) | 1.4 µg/mL (≈ 3.72 µM) | – | 4.3 µg/mL (≈ 11.4 µM) | – | – | – |
